Patent US7101844B2, “Cytoplasmic transduction peptides and uses thereof” (Creagene, Inc., priority 2002, dated 2006)
“Also recorded” adds a separate entry of the source. Primed or numbered codes have the meaning given here. No end group written: not given here. FITC′ = not defined here

How the values were obtained:
[1] = molecular target: T1, XIAP (X-linked inhibitor of apoptosis protein) (Homo sapiens, UniProt P98170); test: Inhibition of XIAP function: UV-induced apoptosis of XIAP-transfected Jurkat E6 cells (Annexin V FACS); assay type: cell-based; settings: 0.1, 0.5, 1 μg/ml peptide, 2 hr
T1 construct: expressed in transfected cells; host or cells: Jurkat E6
T1 sequence (P98170 whole entry, species assumed): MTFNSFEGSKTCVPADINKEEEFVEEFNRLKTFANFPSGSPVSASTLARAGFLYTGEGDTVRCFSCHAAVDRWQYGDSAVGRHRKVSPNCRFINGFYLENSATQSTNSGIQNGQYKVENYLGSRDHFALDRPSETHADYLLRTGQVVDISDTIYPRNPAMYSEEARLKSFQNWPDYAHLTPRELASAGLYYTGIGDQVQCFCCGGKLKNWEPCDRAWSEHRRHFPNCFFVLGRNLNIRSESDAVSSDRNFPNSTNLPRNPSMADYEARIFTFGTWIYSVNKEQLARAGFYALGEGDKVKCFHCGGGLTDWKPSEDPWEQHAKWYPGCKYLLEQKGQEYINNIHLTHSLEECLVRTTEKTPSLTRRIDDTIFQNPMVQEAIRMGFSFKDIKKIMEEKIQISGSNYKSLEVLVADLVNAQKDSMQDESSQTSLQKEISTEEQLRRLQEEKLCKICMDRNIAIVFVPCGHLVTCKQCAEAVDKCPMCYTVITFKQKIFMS
Procedure: Since the first amino acid, alanine, of the 7-amino acid sequence at the N-terminal of the Smac/DIABLO peptide is pivotal in binding to XIAP, as reported previously, CTP was linked to C-terminal of the Smac/DIABLO peptide to prepare Smac/Diablo-CTP-FITC peptide. For detection, FITC was conjugated at the C-terminal of the peptide: Smac/Diablo-CTP-FITC ([…]-FITC).
Jurkat E6 (2×10^5 cell/ml) were transfected with 10 μg of pcDNA3-XIAP using a transfection reagent, GenePORTER 2 (1 μl/μg DNA) and cultured for 2 days at 37° C. in RPMI containing 10% FBS. Two days later, the cells were washed twice with 1× PBS, and treated with Smac/Diablo-CTP-FITC peptide (synthesized at HHMI, KECK BIOTECHNOLOGY RESOURCE CENTER) for 2 hr at 37° C. in a serum free media at concentrations of 0.1 μg/ml, 0.5 μg/ml and 1 μg/ml. Then, to measure the extent of apoptosis, the cells were exposed to UV light (40 W) for 50 sec in a culture hood. After 6 hr, the cells were washed twice with 1 × PBS and the apoptozed cells were measured by FACS using Annexin V-FITC apoptosis detection kit (BD Biosciences Pharmingen. Cot: 556547).

HeLa cells [2] = test: Subcellular localization of CTP-β-gal by confocal scanning microscope; assay type: cell-based; settings: β-galactosidase fusion protein, 100 μg/ml, 1 hr
Description: To select cytoplamic transduction peptides (CTPs) of interest, HeLa cells were transduced with CTP-β-galactosidase, and then examined under the confocal scanning microscope. Before the confocal analysis, cells were stained with mouse anti-β-galactosidase antibody and 2nd antibodies conjugated with FITC (Fluorescence-iso-thio-cyanate) or with PE (phycoerythrin) together with DNA staining reagent (green fluorescence SYTO-16 DNA staining dye, Molecular Probe). First, HeLa cells (5×10^5 cells/ml) were plated onto a 6-well plate containing sterilized cover-slips and cultured overnight at 37° C. CO2 incubator. The cells were washed with PBS (pH 7.4) and 1 ml of an OPTI-MEM I medium was added, followed by treatment with candidate CTP-fused proteins (100 μg/ml). As a positive control, PTD-β-galactosidase fusion protein was employed, and as a negative control, only β-galactosidase protein was used. Following the treatment with candidate CTP-β-galactosidase fusion proteins, cells were incubated for 1 hr at 37° C. incubator. The cells were rinsed three times with PBS and fixed with 2% paraformaldehyde for 20 min at 4° C. HeLa cells fixed were washed twice with washing buffer (PBS containing 0.2% BSA and 0.02% sodium azide). To stain the cells with antibody, cells were pre-treated with 0.5% Triton X-100 (in PBS, Sigma) at 4° C. for 20 min. Cells were washed three times with washing buffer and then stained with mouse anti-β-galactosidase antibody (diluted 1:2,000, Sigma) for 1 hr at 4° C. as a primary antibody and then washed three times with washing buffer. Cells were then incubated with FITC-conjugated goat anti-mouse IgG (diluted 1:2,000, Jackson Laboratory) as a secondary antibody for 20 min at 4° C. Washed 3 times with the same washing buffer, cells were fixed on a slide glass with fluorescence mounting medium (DAKO) and the edge of slide glass was sealed with nail vanish.
Double staining was carried out with SYTO-16 DNA staining dye as follows: First, the cells were incubated with the primary antibodies under the same conditions and rinsed three times. Then, the cells were incubated at 4° C. for 20 min with PE-conjugated goat anti-mouse IgG PE (diluted 1:2,000, Jackson Laboratory). Washed three times with washing buffer, cells were incubated with SYTO-16 DNA staining dye (diluted 1:1,000, DAKO) for 20 min at 4° C. Cells were fixed and sealed on a slide glass and then examined under a confocal laser scanning microscope.
In the present experiment, LEICA TCS NT SP confocal microscope (LEICA Lasertech GmbH, Heidelverg, Germany) was employed, which was equipped with lager generator of argon (Ar) and krypton (Kr), scanning device, and filter capable of detecting FITC (510–550 nm) and PE (600–660) at independent channel. Photographs were taken by PL-APO X100 objective. For single staining, the cells were sectioned into 4-layers and fluorescence and transmission photographs were taken. For double staining, FITC, PE, and transmission photographs were taken using optimal respective filter.

HeLa cells [3] = test: Transduction potential of CTP-β-gal following treatment with trypsin (staining); assay type: cell-based; settings: 50 μg/ml, 20 hr, trypsin before fixation
Procedure: HeLa cells were cultured for 1 day in DMEM (high glucose) at a density of 2×10^5/ml in 48-well plates. Cells were washed once with 1× PBS, and then incubated further for additional 20 hr in OPTI-MEM containing PTD-β-gal, MTS-β-gal, CTP501-β-gal or CTP514-β-gal, respectively, at a concentration of 50 μg/ml. Thereafter, the cells were treated with trypsin-EDTA (10×) for 3 min at 37° C. to remove the CPP-β-gal attached to the cell surface, and then rinsed twice with 1× PBS, followed by fixing with a fixation solution for 10 min at room temperature. After washing twice with 1× PBS, the cells were stained with a staining solution for 2 hr at 37° C. and photographed under a microscope (FIG. 6b).

HeLa cells [4] = test: Transduction of PTD- and CTP-β-galactosidase into HeLa cells (X-gal staining after fixation); assay type: cell-based; settings: 100 μg/ml, 1 hr; for transduction potential: β-galactosidase fusion protein, HeLa cells, fixation; for order of transduction potentials into HeLa cells: β-galactosidase fusion, X-gal staining
Description: Although various other substitutions could be performed, it is essential in this invention that the introduction of a positive charge by arginine and the substitution by an α-helix stabilizing amino acid should be carried out for maintaining the principle function of the PTD peptide. Therefore, as a substitute amino acid, the positively charged amino acid is restricted to arginine, and the negatively charged amino acid is restricted to glutamic acid. β-galactosidase was fused to the CTP candidate peptide, the fusion proteins were isolated and purified (see FIG. 2), and HeLa cells were treated with each of the fusion proteins. This was then followed by an analysis of the transduction potential and a determination of the extent of the cytoplasmic remaining property.
The transduction potential of the PTD and CTP candidates was tested with HeLa cells. Using a 24-well plate (Nunc), 5×10^4 HeLa cells were inoculated into high glucose DMEM (containing 10% FBS) and cultured for 36 hr. The cells were rinsed with PBS and treated with 100 μg/ml of PTD- and CTP-β-galactosidase in an opti-MEM I medium. After 1-hr incubation, cells were fixed for 10 min at room temperature with a fixation solution (2% formaldehyde, 0.2% glutaraldehyde in PBS). Then, the cells were rinsed twice with PBS, and stained for 2 hr with dye (0.1% X-gal, 5 mM potassium ferricyanide, 5 mM potassium ferrocyanide, 2 mM MgCl2 in PBS) to examine their transduction potential (see FIG. 3). The samples showing a low level of staining, even after a 2-hr staining, were incubated overnight, and then stained for the relative transduction potential. The transduction potentials of the PTD and CTP candidates into HeLa cells were seen to be in the following order: PTD5<CTP502<<CTP501=CTP506<CTP507<CTP505<CTP503=CTP504<CTP508=CTP510=MTS<CTP509<<PTD=CTP511<<CTP512.

HeLa cells [5] = test: Subcellular localization of CTP-FITC by confocal microscope without cell fixation; assay type: cell-based; settings: FITC-labeled peptide, 25 μg/ml, 1 hr
Description: Fixation step is inevitable for examining the subcellular localization of the transduced β-gal in the cells with antibodies. However, according to the previous reports, the fusion protein attached to cell surface is very likely to be introduced into the cell during a cell fixation procedure, which may affect its transduction potential and its subcellular localization. However, FITC-labeled membrane permeation peptides allow its subcellular localization to be observed under a confocal microscope without cell fixation. Monolayered HeLa cells were treated for 1 hr with FITC-labeled CTP, PTD or MTS at a concentration of 25 μg/ml, and washed three times with HBSS, followed by observation under a confocal microscope without cell fixation.

[6] = cited from earlier work
[7] = mouse, in vivo
Procedure: CTP-β-gal was administered via the peritoneal cavity or a tail vein of mice. Four hr later, organs such as thymus, heart, spleen, liver and kidney were extracted. The organs rapidly frozen were sectioned with a microtome, and then incubated overnight in a X-gal reaction solution, followed by observation of the β-gal activity under a microscope.

[8] = design: species or system BALB/c mice; settings: mouse, in vivo, iv
Procedure: To elucidate whether the CTP of this invention can deliver its fusion partner into cells in vivo as well as into cells in vitro, BALB/c mice were injected i.p. with 25 μg/(g of mouse) of CTP-β-gal, PTD-β-gal, MTS-β-gal fusion protein or β-gal protein, or injected i.v. via tail vein with 100 μg/mouse of fusion proteins. Four hr after injection, mice were euthanized and skinned, and their peritoneal cavities were dissected, followed by washing three times with a PBS buffer. After fixation with a fixing solution, whole body was stained in X-gal solution. Each organ was extracted and the β-gal activity was measured.

HeLa cells [9] = test: Kinetics on the transduction of CTP-β-gal and PTD-β-gal; assay type: cell-based; settings: trypsin prior to cell harvest
Procedure: The Membrane permeability of CTP-β-gal and PTD-β-gal was analyzed in kinetics. Cells were treated with the fusion protein and lysed with 0.9% Triton X-100 solution without trypsinization, after which the overall β-gal activity in the cells was measured. Furthermore, in order to measure the authentic trnsduction amount of β-gal imported into the cells, the cells were trypsinized following the treatment with fusion protein, and then examined the amount of the β-gal activity imported into the cells in the same conditions (see FIG. 8).

With “AVPIAQKSEGGRRARRRRRRK-FITC (AVPIAQKSEGGRRARRRRRRK-{FITC′}) [Smac/Diablo-CTP-FITC, N-terminal Smac/DIABLO peptide linked to CTP, FITC at the C-terminal]” as the substance, how does the “apoptosis of cells transfected with 10 μg pcDNA-XIAP DNA” value [1] read?
Its value is “greatly increased”.

With “CTP511: CTP candidate (2G4R8R), sequence YGRRARRRARR” as the substance, how does the “cytoplasmic remaining property / subcellular localization” value (HeLa cells [2]) read?
Its value is “significantly high”.

And the “cytoplasmic remaining property / subcellular localization” value (HeLa cells [2]; listed as CTP 511)?
Its value is “excellent cytoplasmic remaining property”.

And the “β-gal activity transduced into cells” value (HeLa cells [3])?
Its value is “almost equivalent to that of the PTD”.

What about the transduction potential (HeLa cells [4]) of the same substance?
Its transduction potential is “transduction potential similar to the wild type PTD; also recorded: significantly high transduction potential”.

And the transduction potential (HeLa cells [4]; listed as CTP 511)?
The transduction potential was “transduction potential identical to PTD”.

What about the “order of transduction potentials into HeLa cells” value (HeLa cells [4]) of the same substance?
The value was “PTD=CTP511<<CTP512”.

Which “β-gal activity transduced into cells” value (HeLa cells [3]) does the source give for “CTP513: CTP (2G4R5R8R9R), sequence YGRRRRRRRRR” here?
Its value is “much more efficient to transduce β-gal into cells than either PTD or MTS”.

And the “order of transduction potential” value (HeLa cells [5])?
Its value is “CTP512>513>>514”.

What about the subcellular localization (HeLa cells [5]) of the same substance?
Its subcellular localization is “observed only in the cytoplasm, and not in the nucleus”.

For “CTP514: CTP (2R4R5R8R9R), sequence YRRRRRRRRRR”, which “β-gal activity transduced into cells” value (HeLa cells [3]) is on record?
Its value is “almost equivalent to that of the PTD”.

What about the subcellular localization (HeLa cells [5]) of the same substance?
Its subcellular localization is “observed only in the cytoplasm, and not in the nucleus”.

For “PTD5: PTD derivative of the Dowdy group; differs from CTP504 only by alanine at position 2, i.e. YARAARRAARR (CTP50, Table 1) [reference compound]”, which “cytoplasmic remaining property / subcellular localization” value (HeLa cells [2]) is on record?
Its value is “relatively increased pattern in terms of the extent it remains in the cytoplasm as compared to PTD”.

What about the “efficiency of delivering peptides into the cell, higher than PTD (TAT)” value ([6]; peptides, reported by the Dowdy group) of the same substance?
The value was 8 fold.

And the “order of transduction potentials into HeLa cells” value (HeLa cells [4])?
The value was “PTD5<CTP502”.

With “RRRRRRRRR [Arg polycationic homopolymer]” as the substance, how does the “transduction efficiency greater than Tat PTD” value ([6]; Wender et al., 2000) read?
The value was 20 fold.

With “β-gal: only β-galactosidase protein, negative control” as the substance, how does the “β-gal activity in organ sections (thymus, heart, spleen, liver, kidney)” value [7] read?
The value was “little or no β-gal activity in the inner side”.

And the “β-gal activity in auxiliary, inguinal and popliteal lymph nodes” value [8]?
Its value is “not observed”.

And the “transduction potential / import into cells over time” value (HeLa cells [9])?
The value was “not to be imported into cells with the lapse of time”.
